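Step 1: Grow cells in 96-well plates. Step 2: Expose to compound for 48 hours at 5 concentrations. Step 3: Interpolate endpoints linearly; if unreached, use highest concentration. TGI marks complete inhibition of growth.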
Key:
Test in all cases: growth of human tumour cells (NCI), 48 h
786-0 renal = tested on: 786-0 renal
A498 renal = tested on: A498 renal
A549 NSCLC = tested on: A549 NSCLC
ACHN renal = tested on: ACHN renal
CAKI-1 renal = tested on: CAKI-1 renal
CCRF-CEM leukemia = tested on: CCRF-CEM leukemia
COLO 205 colon = tested on: COLO 205 colon
DLD-1 colon = tested on: DLD-1 colon
DMS 114 small cell lung = tested on: DMS 114 small cell lung
DMS 273 small cell lung = tested on: DMS 273 small cell lung
EKVX NSCLC = tested on: EKVX NSCLC
HCC-2998 colon = tested on: HCC-2998 colon
HCT-116 colon = tested on: HCT-116 colon
HCT-15 colon = tested on: HCT-15 colon
HL-60(TB) leukemia = tested on: HL-60(TB) leukemia
HOP-62 NSCLC = tested on: HOP-62 NSCLC
HT29 colon = tested on: HT29 colon
IGROV1 ovarian = tested on: IGROV1 ovarian
K-562 leukemia = tested on: K-562 leukemia
KM12 colon = tested on: KM12 colon
KM20L2 colon = tested on: KM20L2 colon
LOX IMVI melanoma = tested on: LOX IMVI melanoma
LXFL 529 NSCLC = tested on: LXFL 529 NSCLC
M14 melanoma = tested on: M14 melanoma
M19-MEL melanoma = tested on: M19-MEL melanoma
MALME-3M melanoma = tested on: MALME-3M melanoma
NCI-H23 lung = tested on: NCI-H23 lung
NCI-H460 lung = tested on: NCI-H460 lung
OVCAR-3 ovarian = tested on: OVCAR-3 ovarian
OVCAR-4 ovarian = tested on: OVCAR-4 ovarian
OVCAR-5 ovarian = tested on: OVCAR-5 ovarian
OVCAR-8 ovarian = tested on: OVCAR-8 ovarian
RPMI-8226 leukemia = tested on: RPMI-8226 leukemia
RXF 393 renal = tested on: RXF 393 renal
SF-268 CNS = tested on: SF-268 CNS
SF-295 CNS = tested on: SF-295 CNS
SK-MEL-2 melanoma = tested on: SK-MEL-2 melanoma
SK-MEL-28 melanoma = tested on: SK-MEL-28 melanoma
SK-MEL-5 melanoma = tested on: SK-MEL-5 melanoma
SK-OV-3 ovarian = tested on: SK-OV-3 ovarian
SN12C renal = tested on: SN12C renal
SNB-19 CNS = tested on: SNB-19 CNS
SR leukemia = tested on: SR leukemia
SW-620 colon = tested on: SW-620 colon
TK-10 renal = tested on: TK-10 renal
U251 CNS = tested on: U251 CNS
UACC-257 melanoma = tested on: UACC-257 melanoma
UACC-62 melanoma = tested on: UACC-62 melanoma
UO-31 renal = tested on: UO-31 renal
XF 498 CNS = tested on: XF 498 CNS
BT-549 breast = tested on: BT-549 breast
DU-145 prostate = tested on: DU-145 prostate
HOP-92 NSCLC = tested on: HOP-92 NSCLC
HS 578T breast = tested on: HS 578T breast
MCF7 breast = tested on: MCF7 breast
MDA-MB-231 breast = tested on: MDA-MB-231 breast
MDA-MB-435 = tested on: MDA-MB-435
MDA-N = tested on: MDA-N
MOLT-4 leukemia = tested on: MOLT-4 leukemia
NCI-H226 lung = tested on: NCI-H226 lung
NCI-H522 lung = tested on: NCI-H522 lung
NCI/ADR-RES ovarian = tested on: NCI/ADR-RES ovarian
PC-3 prostate = tested on: PC-3 prostate
SF-539 CNS = tested on: SF-539 CNS
SNB-75 CNS = tested on: SNB-75 CNS
T-47D breast = tested on: T-47D breast

CCOc1ncnc2ccc(Cl)c(I)c12
TGI (786-0 renal): > 100 µM | TGI (A498 renal): > 100 µM | TGI (A549 NSCLC): > 100 µM | TGI (ACHN renal): > 100 µM | TGI (CAKI-1 renal): > 100 µM | TGI (CCRF-CEM leukemia): > 100 µM | TGI (COLO 205 colon): > 100 µM | TGI (DLD-1 colon): > 100 µM | TGI (DMS 114 small cell lung): > 100 µM | TGI (DMS 273 small cell lung): > 100 µM | TGI (EKVX NSCLC): > 100 µM | TGI (HCC-2998 colon): > 100 µM | TGI (HCT-116 colon): > 100 µM | TGI (HCT-15 colon): > 100 µM | TGI (HL-60(TB) leukemia): > 100 µM | TGI (HOP-62 NSCLC): > 100 µM | TGI (HT29 colon): > 100 µM | TGI (IGROV1 ovarian): > 100 µM | TGI (K-562 leukemia): > 100 µM | TGI (KM12 colon): > 100 µM | TGI (KM20L2 colon): > 100 µM | TGI (LOX IMVI melanoma): > 100 µM | TGI (LXFL 529 NSCLC): > 100 µM | TGI (M14 melanoma): > 100 µM | TGI (M19-MEL melanoma): > 100 µM | TGI (MALME-3M melanoma): > 100 µM | TGI (NCI-H23 lung): > 100 µM | TGI (NCI-H460 lung): > 100 µM | TGI (OVCAR-3 ovarian): > 100 µM | TGI (OVCAR-4 ovarian): > 100 µM | TGI (OVCAR-5 ovarian): > 100 µM | TGI (OVCAR-8 ovarian): > 100 µM | TGI (RPMI-8226 leukemia): > 100 µM | TGI (RXF 393 renal): 60.7 µM | TGI (SF-268 CNS): > 100 µM | TGI (SF-295 CNS): > 100 µM | TGI (SK-MEL-2 melanoma): > 100 µM | TGI (SK-MEL-28 melanoma): > 100 µM | TGI (SK-MEL-5 melanoma): > 100 µM | TGI (SK-OV-3 ovarian): > 100 µM | TGI (SN12C renal): > 100 µM | TGI (SNB-19 CNS): > 100 µM | TGI (SR leukemia): > 100 µM | TGI (SW-620 colon): > 100 µM | TGI (TK-10 renal): > 100 µM | TGI (U251 CNS): > 100 µM | TGI (UACC-257 melanoma): > 100 µM | TGI (UACC-62 melanoma): > 100 µM | TGI (UO-31 renal): 75.5 µM | TGI (XF 498 CNS): > 100 µM

Nc1nc(Cl)c(C=O)c(NCC2(CO)CCC2)n1
TGI (786-0 renal): > 100 µM | TGI (A498 renal): 67.7 µM | TGI (A549 NSCLC): > 100 µM | TGI (ACHN renal): > 100 µM | TGI (BT-549 breast): > 100 µM | TGI (CAKI-1 renal): 33.9 µM | TGI (CCRF-CEM leukemia): 34.1 µM | TGI (COLO 205 colon): 78.3 µM | TGI (DU-145 prostate): > 100 µM | TGI (EKVX NSCLC): 46.9 µM | TGI (HCC-2998 colon): 22.9 µM | TGI (HCT-116 colon): 40.6 µM | TGI (HCT-15 colon): 25.3 µM | TGI (HL-60(TB) leukemia): 22.3 µM | TGI (HOP-62 NSCLC): 65.1 µM | TGI (HOP-92 NSCLC): 31.1 µM | TGI (HS 578T breast): 67.9 µM | TGI (HT29 colon): > 100 µM | TGI (IGROV1 ovarian): 25.9 µM | TGI (K-562 leukemia): 31.7 µM | TGI (KM12 colon): > 100 µM | TGI (LOX IMVI melanoma): 26.9 µM | TGI (M14 melanoma): > 100 µM | TGI (MALME-3M melanoma): > 100 µM | TGI (MCF7 breast): > 100 µM | TGI (MDA-MB-231 breast): 81.5 µM | TGI (MDA-MB-435): > 100 µM | TGI (MDA-N): 77 µM | TGI (MOLT-4 leukemia): 65.5 µM | TGI (NCI-H226 lung): 34 µM | TGI (NCI-H23 lung): > 100 µM | TGI (NCI-H460 lung): > 100 µM | TGI (NCI-H522 lung): 14.7 µM | TGI (NCI/ADR-RES ovarian): > 100 µM | TGI (OVCAR-3 ovarian): 42.9 µM | TGI (OVCAR-4 ovarian): 32.9 µM | TGI (OVCAR-5 ovarian): > 100 µM | TGI (OVCAR-8 ovarian): 33.8 µM | TGI (PC-3 prostate): 34.6 µM | TGI (RPMI-8226 leukemia): > 100 µM | TGI (RXF 393 renal): 50.1 µM | TGI (SF-268 CNS): 51.8 µM | TGI (SF-295 CNS): 67.6 µM | TGI (SF-539 CNS): > 100 µM | TGI (SK-MEL-2 melanoma): 28.3 µM | TGI (SK-MEL-28 melanoma): > 100 µM | TGI (SK-MEL-5 melanoma): 31.4 µM | TGI (SK-OV-3 ovarian): 69.5 µM | TGI (SN12C renal): > 100 µM | TGI (SNB-19 CNS): 34.4 µM | TGI (SNB-75 CNS): 67.7 µM | TGI (SR leukemia): 43.8 µM | TGI (SW-620 colon): > 100 µM | TGI (T-47D breast): > 100 µM | TGI (TK-10 renal): > 100 µM | TGI (U251 CNS): 31.9 µM | TGI (UACC-257 melanoma): > 100 µM | TGI (UACC-62 melanoma): 35.1 µM | TGI (UO-31 renal): 58.6 µM
